Assay results as given in article PMC5814186, “Identification and characterization of novel enhanced cell penetrating peptides for anti-cancer cargo delivery” (Oncotarget, 2017).
No end group written: not given here.

Legend:
[1] = cited from earlier work
Source text: We have recently published the use of a CPP named Mut3DPT [15, 16]. […] We decided to generate new CPPs with enhanced penetration and stability, compared to the original Mut3DPT shuttle and keeping equilibrium among penetration, solubility and toxicity.

[2] = cited from earlier work; remark: listed apart in the source
Source text: Electrostatic interactions between the […] in the cell membrane surface are important for the internalization. […] When tryptophan residues were replaced by leucine residues, the peptide was not internalized.

[3] = Stability to protease degradation in human serum; settings: 37°C, different periods of time up to 24 h, triplicate; for stability in human serum (percentage of intact peptide), shuttles associated to the cargo PP2A/SET, compared to the shuttle without cargo: MS (MALDI-TOF)
Procedure: We further analyzed the stability to proteases degradation of the shuttles in human serum upon incubation at 37°C for different periods of time. All the shuttles were incubated with human serum and the resistance to proteases degradation analyzed by HPLC-MS.
Figure 7 Stability of the new generated shuttles in human serum (A) The shuttles were incubated at 37°C in human serum for different periods of time and their integrity (percentage of intact peptide) was analyzed by mass spectrometry (MS). Every measurement was performed in triplicate. Standard deviation is shown. (B) The shuttles Tat, Penetatin and R8 were incubated as above and the integrity was analyzed by MS. Every measurement was performed in triplicate.
For this, the new generated bi-functional peptides (shuttles associated to the cargo PP2A/SET) were incubated with human serum for different periods of time.
Figure 9 Stability in human serum of the shuttles associated to a cargo (PP2A/SET binding site) The shuttles associated to the cargo PP2A/SET were incubated at 37°C in human serum for different periods of time and their integrity (percentage of intact peptide) was analyzed by mass spectrometry (MS). Measurements were performed in triplicate and standard deviation is shown.
Peptides were incubated at 37°C in 250 ml of human serum for different periods of time. Samples were collected and peptides degradation stopped by freezing. Peptides were extracted from samples using the Proteo Miner Protein Enrichment System (Bio-Rad). Peptide integrity (percentage of intact peptide) was analyzed by mass spectrometry (MS) using MALDI-TOF (Brucker Autoflex II) following their standard protocols. Measurements were performed in triplicate. MS data were analyzed using appropriate software (Clinprot tools, Flex analysis, Brucker).

Compound | stability in human serum (percentage of intact peptide), shuttles associated to the cargo PP2A/SET, compared to the shuttle without cargo [3] | further results
VKKKKIKAEIKI [Mut3DPT] |  | resistance to protease degradation [1]: favourable parameters of resistance to protease degradation
RRWWRRWRR [RW9, literature CPP RW9 (…)] |  | cellular uptake / internalization [2]: good cellular uptake
KKWKKWKKWKKETVTLLVALKVRYRERIT [Mut5DPT-PP2A/SET] | slightly degradation upon 24 h | 
KKKKKWKKWKKKETVTLLVALKVRYRERIT [Mut7DPT-PP2A/SET] | does not significantly modify the stability | 
N=C(N)NCCC[C@H](NC(=O)[C@H](CCCNC(=N)N)NC(=O)[C@H](CCCNC(=N)N)NC(=O)[C@H](CCCNC(=N)N)NC(=O)[C@H](CCCNC(=N)N)NC(=O)[C@H](CCCNC(=N)N)NC(=O)[C@H](CCCNC(=N)N)NC(=O)[C@@H](N)CCCNC(=N)N)C(=O)O [R8] |  | stability in human serum (percentage of intact peptide), shuttles without cargo ([3]; MS (MALDI-TOF; text HPLC-MS)): degraded by serum proteases and almost not detected by HPLC-MS upon 24 h of incubation
RRWRRWRRWRRETVTLLVALKVRYRERIT [Mut6DPT-PP2A/SET] | does not significantly modify the stability | 
